Experimental data as given in ChEMBL document CHEMBL4823274, “Discovery of chiral N-2'-aryletheryl-1'-alkoxy-ethyl substituted arylisoquinolones with anti-inflammatory activity from the nucleophilic addition reactions of the thiophenols and oxazolinium” (Eur J Med Chem, 2021).
pIC50, pKi: −log10 of the molar value. Activity calls are given as the source filed them. The rule behind the calls is not given here.

Test system: RAW264.7
Assay: Antiinflammatory activity against LPS-stimulated mouse RAW264.7 cells assessed inhibition of TNFalpha release at 0.5 uM incubated for 24 hrs in presence of LPS by ELISA
Format: functional
Details: not given

| SMILES | inhibition at 0.5 µM |
| --- | --- |
| COc1ccc2cc(-c3ccc4c(c3)OCO4)n(C(CSc3ccc(C(F)(F)F)cc3)OC)c(=O)c2c1OC (centres undefined) | 72.9% |
| COc1ccc2cc(-c3ccc4c(c3)OCO4)n(C(CSc3ccc(C)cc3)OC)c(=O)c2c1OC (centres undefined) | 79.6% |
| COc1ccc2cc(-c3ccc4c(c3)OCO4)n(C(CSc3ccc(F)cc3)OC)c(=O)c2c1OC (centres undefined) | 77.4% |
| COc1ccc2cc(-c3ccc4c(c3)OCO4)n(C(CSc3cccc(C(F)(F)F)c3)OC)c(=O)c2c1OC (centres undefined) | 69.2% |
| COc1ccc2cc(-c3ccc4c(c3)OCO4)n(C(CSc3ccc([N+](=O)[O-])cc3)OC)c(=O)c2c1OC (centres undefined) | 87.8% |
| COc1ccc(SCC(OC)n2c(-c3ccc4c(c3)OCO4)cc3ccc(OC)c(OC)c3c2=O)cc1 (centres undefined) | -3.4% |
| COc1ccc2cc(-c3ccc4c(c3)OCO4)n(C(CSc3ccc(Br)cc3)OC)c(=O)c2c1OC (centres undefined) | 84.5% |
| COc1ccc2cc(-c3ccc4c(c3)OCO4)n(C(CSc3cccc(Br)c3)OC)c(=O)c2c1OC (centres undefined) | 36.1% |
| COc1ccc2cc(-c3ccc4c(c3)OCO4)n(C(CSc3cc(C(F)(F)F)cc(C(F)(F)F)c3)OC)c(=O)c2c1OC (centres undefined) | 78.3% |
| COc1ccc2cc(-c3ccc4c(c3)OCO4)n(C(CSc3ccccc3Br)OC)c(=O)c2c1OC (centres undefined) | 80.7% |
| COc1ccc2cc(-c3ccc4c(c3)OCO4)n(C(CSc3nc(C)cc(C)n3)OC)c(=O)c2c1OC (centres undefined) | 69.7% |
| COc1ccc2cc(-c3ccc4c(c3)OCO4)n(C(CSc3ccccc3)OC)c(=O)c2c1OC (centres undefined) | 49.4% |
| COc1ccc2cc3[n+](cc2c1OC)CCc1cc2c(cc1-3)OCO2 [BERBERINE] | 4.1% |

Test system: not listed separately
Assay: Cytotoxicity against mouse RAW264.7 cells assessed as cell viability at 0.5 uM incubated for 24 hrs by CCK8 assay
Format: cell-based
Details: read-out: Activity

| SMILES | viability at 24 h, 0.5 µM |
| --- | --- |
| COc1ccc2cc(-c3ccc4c(c3)OCO4)n(C(CSc3ccc(C(F)(F)F)cc3)OC)c(=O)c2c1OC (centres undefined) | 98% |
| COc1ccc2cc(-c3ccc4c(c3)OCO4)n(C(CSc3ccc(C)cc3)OC)c(=O)c2c1OC (centres undefined) | 70.4% |
| COc1ccc2cc(-c3ccc4c(c3)OCO4)n(C(CSc3ccc(F)cc3)OC)c(=O)c2c1OC (centres undefined) | 77.8% |
| COc1ccc2cc(-c3ccc4c(c3)OCO4)n(C(CSc3cccc(C(F)(F)F)c3)OC)c(=O)c2c1OC (centres undefined) | 93.3% |
| COc1ccc2cc(-c3ccc4c(c3)OCO4)n(C(CSc3ccc([N+](=O)[O-])cc3)OC)c(=O)c2c1OC (centres undefined) | 80.1% |
| COc1ccc(SCC(OC)n2c(-c3ccc4c(c3)OCO4)cc3ccc(OC)c(OC)c3c2=O)cc1 (centres undefined) | 80.8% |
| COc1ccc2cc(-c3ccc4c(c3)OCO4)n(C(CSc3ccc(Br)cc3)OC)c(=O)c2c1OC (centres undefined) | 70.9% |
| COc1ccc2cc(-c3ccc4c(c3)OCO4)n(C(CSc3cccc(Br)c3)OC)c(=O)c2c1OC (centres undefined) | 57% |
| COc1ccc2cc(-c3ccc4c(c3)OCO4)n(C(CSc3cc(C(F)(F)F)cc(C(F)(F)F)c3)OC)c(=O)c2c1OC (centres undefined) | 82.8% |
| COc1ccc2cc(-c3ccc4c(c3)OCO4)n(C(CSc3ccccc3Br)OC)c(=O)c2c1OC (centres undefined) | 80.7% |
| COc1ccc2cc(-c3ccc4c(c3)OCO4)n(C(CSc3nc(C)cc(C)n3)OC)c(=O)c2c1OC (centres undefined) | 101% |
| COc1ccc2cc(-c3ccc4c(c3)OCO4)n(C(CSc3ccccc3)OC)c(=O)c2c1OC (centres undefined) | 85.4% |
| COc1ccc2cc3[n+](cc2c1OC)CCc1cc2c(cc1-3)OCO2 [BERBERINE] | 129% |

Test system: not listed separately
Assay: Cytotoxicity against mouse RAW264.7 cells assessed as reduction in cell viability incubated for 24 hrs by CCK8 assay
Format: cell-based
Details: not given

| SMILES | CC50 at 24 h |
| --- | --- |
| COc1ccc2cc(-c3ccc4c(c3)OCO4)n([C@H](COc3ccc([N+](=O)[O-])cc3)OC)c(=O)c2c1OC | > 2500 nM |
| COc1ccc2cc(-c3ccc4c(c3)OCO4)n([C@@H](CSc3ccc([N+](=O)[O-])cc3)OC)c(=O)c2c1OC | 7040 nM |
| COc1ccc2cc(-c3ccc4c(c3)OCO4)n([C@H](CSc3ccc([N+](=O)[O-])cc3)OC)c(=O)c2c1OC | > 2500 nM |
| COc1ccc2cc(-c3ccc4c(c3)OCO4)n([C@@H](COc3ccc([N+](=O)[O-])cc3)OC)c(=O)c2c1OC | 1820 nM |

Test system: RAW264.7
Assay: Antiinflammatory activity against LPS-stimulated mouse RAW264.7 cells assessed inhibition of TNFalpha release incubated for 24 hrs in presence of LPS by ELISA
Format: functional, cell-based
Details: RAW264.7, 24 h

| pIC50 | SMILES |
| --- | --- |
| < 5.00 | COc1ccc2cc(-c3ccc4c(c3)OCO4)n([C@H](COc3ccc([N+](=O)[O-])cc3)OC)c(=O)c2c1OC |
| 7.25 | COc1ccc2cc(-c3ccc4c(c3)OCO4)n([C@@H](CSc3ccc([N+](=O)[O-])cc3)OC)c(=O)c2c1OC |
| < 5.60 | COc1ccc2cc(-c3ccc4c(c3)OCO4)n([C@H](CSc3ccc([N+](=O)[O-])cc3)OC)c(=O)c2c1OC |
| 7.85 | COc1ccc2cc(-c3ccc4c(c3)OCO4)n([C@@H](COc3ccc([N+](=O)[O-])cc3)OC)c(=O)c2c1OC |

Target: T1, Estrogen receptor (Homo sapiens) (UniProt P03372)
T1 sequence (whole entry): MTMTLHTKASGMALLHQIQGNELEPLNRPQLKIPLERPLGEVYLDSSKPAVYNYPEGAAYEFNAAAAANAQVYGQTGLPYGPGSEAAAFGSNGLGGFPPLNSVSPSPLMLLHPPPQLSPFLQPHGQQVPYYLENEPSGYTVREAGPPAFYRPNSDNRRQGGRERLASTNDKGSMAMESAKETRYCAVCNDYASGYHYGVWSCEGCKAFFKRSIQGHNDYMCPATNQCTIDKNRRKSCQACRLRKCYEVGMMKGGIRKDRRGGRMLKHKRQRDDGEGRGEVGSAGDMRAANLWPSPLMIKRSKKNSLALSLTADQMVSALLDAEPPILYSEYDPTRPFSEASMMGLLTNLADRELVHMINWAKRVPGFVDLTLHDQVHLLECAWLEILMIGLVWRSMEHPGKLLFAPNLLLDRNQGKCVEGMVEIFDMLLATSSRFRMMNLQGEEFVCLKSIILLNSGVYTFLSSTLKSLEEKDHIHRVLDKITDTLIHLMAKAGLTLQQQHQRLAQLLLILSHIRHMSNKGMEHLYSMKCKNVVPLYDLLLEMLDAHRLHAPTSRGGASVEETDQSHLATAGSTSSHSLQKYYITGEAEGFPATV
Assay: Binding affinity to human ERalpha LBD measured after 2 hrs by competitive fluorometric binding assay relative to 17beta-estradiol
Details: not given

| RBA | SMILES |
| --- | --- |
| 0.03% | COc1ccc2cc(-c3ccc4c(c3)OCO4)n([C@H](COc3ccc([N+](=O)[O-])cc3)OC)c(=O)c2c1OC |
| 0.24% | COc1ccc2cc(-c3ccc4c(c3)OCO4)n([C@@H](COc3ccc([N+](=O)[O-])cc3)OC)c(=O)c2c1OC |

Target: T2, Estrogen receptor beta (Homo sapiens, UniProt Q92731)
Assay: Binding affinity to human ERbeta LBD measured after 2 hrs by competitive fluorometric binding assay relative to 17beta-estradiol
Details: not given

T2 sequence (Q92731 whole entry, the tested form may be a part): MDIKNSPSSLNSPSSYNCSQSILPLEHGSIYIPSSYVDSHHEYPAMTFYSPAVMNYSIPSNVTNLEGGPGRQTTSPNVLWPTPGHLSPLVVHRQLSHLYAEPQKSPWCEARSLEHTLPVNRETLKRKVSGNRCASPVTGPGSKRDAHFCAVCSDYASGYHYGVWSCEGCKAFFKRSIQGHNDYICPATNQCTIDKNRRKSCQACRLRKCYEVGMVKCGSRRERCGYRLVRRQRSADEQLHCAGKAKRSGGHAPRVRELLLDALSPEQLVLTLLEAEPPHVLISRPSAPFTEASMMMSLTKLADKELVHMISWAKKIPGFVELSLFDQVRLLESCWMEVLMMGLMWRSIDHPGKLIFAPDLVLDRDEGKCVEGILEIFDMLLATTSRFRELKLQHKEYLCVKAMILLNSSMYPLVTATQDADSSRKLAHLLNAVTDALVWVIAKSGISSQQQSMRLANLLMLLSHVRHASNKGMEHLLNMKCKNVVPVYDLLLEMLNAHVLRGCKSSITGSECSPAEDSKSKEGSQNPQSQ

| RBA | SMILES |
| --- | --- |
| 0.03% | COc1ccc2cc(-c3ccc4c(c3)OCO4)n([C@H](COc3ccc([N+](=O)[O-])cc3)OC)c(=O)c2c1OC |
| 1.04% | COc1ccc2cc(-c3ccc4c(c3)OCO4)n([C@@H](COc3ccc([N+](=O)[O-])cc3)OC)c(=O)c2c1OC |

Species: Homo sapiens
Assay: Selectivity ratio of relative binding affinity for human ERalpha LBD to relative binding affinity for human ERbeta LBD
Details: not given

| Ratio | SMILES |
| --- | --- |
| 1 | COc1ccc2cc(-c3ccc4c(c3)OCO4)n([C@H](COc3ccc([N+](=O)[O-])cc3)OC)c(=O)c2c1OC |
| 0.23 | COc1ccc2cc(-c3ccc4c(c3)OCO4)n([C@@H](COc3ccc([N+](=O)[O-])cc3)OC)c(=O)c2c1OC |

Target: T3, Estrogen receptor (Homo sapiens, UniProt P03372)
T3 sequence (P03372 whole entry): T1 sequence (whole entry)
Assay: Binding affinity to human ERalpha LBD measured after 2 hrs by competitive fluorometric binding assay
Details: not given

| pKi | SMILES |
| --- | --- |
| 4.77 | COc1ccc2cc(-c3ccc4c(c3)OCO4)n([C@H](COc3ccc([N+](=O)[O-])cc3)OC)c(=O)c2c1OC |
| 5.63 | COc1ccc2cc(-c3ccc4c(c3)OCO4)n([C@@H](COc3ccc([N+](=O)[O-])cc3)OC)c(=O)c2c1OC |

Target: T2, Estrogen receptor beta
Assay: Binding affinity to human ERbeta LBD measured after 2 hrs by competitive fluorometric binding assay
Details: not given

| pKi | SMILES |
| --- | --- |
| 4.59 | COc1ccc2cc(-c3ccc4c(c3)OCO4)n([C@H](COc3ccc([N+](=O)[O-])cc3)OC)c(=O)c2c1OC |
| 6.12 | COc1ccc2cc(-c3ccc4c(c3)OCO4)n([C@@H](COc3ccc([N+](=O)[O-])cc3)OC)c(=O)c2c1OC |

Test system: Mus musculus
Assay: Antiinflammatory activity against DSS-induced ulcerative colitis C57BL/6J mouse model assessed as reduction in body weight loss at 30 mg/kg, po administered daily via gavage and measured for 11 days
Format: functional, organism-based
Details: time 11.0 day

| SMILES | Activity |
| --- | --- |
| COc1ccc2cc(-c3ccc4c(c3)OCO4)n([C@@H](COc3ccc([N+](=O)[O-])cc3)OC)c(=O)c2c1OC | Active |

Test system: Mus musculus
Assay: Antiinflammatory activity against DSS-induced ulcerative colitis C57BL/6J mouse model assessed as reduction in disease activity index at 30 mg/kg, po administered daily via gavage and measured for 11 days
Format: functional, organism-based
Details: time 11.0 day

| SMILES | Activity |
| --- | --- |
| COc1ccc2cc(-c3ccc4c(c3)OCO4)n([C@@H](COc3ccc([N+](=O)[O-])cc3)OC)c(=O)c2c1OC | Active |

Test system: Mus musculus
Assay: Antiinflammatory activity against DSS-induced ulcerative colitis C57BL/6J mouse model assessed as restoration of normal stool consistency at 30 mg/kg, po administered daily via gavage and measured for 11 days
Format: functional, organism-based
Details: time 11.0 day

| SMILES | Activity |
| --- | --- |
| COc1ccc2cc(-c3ccc4c(c3)OCO4)n([C@@H](COc3ccc([N+](=O)[O-])cc3)OC)c(=O)c2c1OC | Active |

Test system: Mus musculus
Assay: Antiinflammatory activity against DSS-induced ulcerative colitis C57BL/6J mouse model assessed as reduction in fecal occult blood at 30 mg/kg, po administered daily via gavage and measured for 11 days
Format: functional, organism-based
Details: time 11.0 day

| SMILES | Activity |
| --- | --- |
| COc1ccc2cc(-c3ccc4c(c3)OCO4)n([C@@H](COc3ccc([N+](=O)[O-])cc3)OC)c(=O)c2c1OC | Active |

Species: Homo sapiens
Assay: Selectivity ratio of Ki for human ERalpha LBD to Ki for human ERbeta LBD
Details: not given

| Ratio Ki | SMILES |
| --- | --- |
| 3 | COc1ccc2cc(-c3ccc4c(c3)OCO4)n([C@@H](COc3ccc([N+](=O)[O-])cc3)OC)c(=O)c2c1OC |
